Experimental findings from US11548868B2, “Heterocyclic compounds, compositions comprising heterocyclic compound, and methods of use thereof” (JS INNOPHARM (SHANGHAI) LTD, priority 2017, dated 2023) are described below.

Experiment [1] addresses T1, TDO2 in A172 cancer cells (Homo sapiens, UniProt P48775).
T1 construct: endogenous in cells; host or cells: A172 cancer cells
Nature of the experiment: TDO2 Cellular Assay (kynurenine production in A172 cancer cells). It counts as cell-based. Particulars: L-Trp 1 mM, 24 hours incubation, kynurenine at 490 nm. In a few lines: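 Kynurenine output of A172 cells was read colorimetrically at 490 nm (Ehrlich reagent after TCA hydrolysis at 50 °C). Cells had 1 mM L-Trp plus compound at 0–25 μM in 0.25% DMSO for 24 h; IC50 values were fitted non-linearly from percent inhibition relative to vehicle.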

The target in experiment [2] is T2, IDO1 in Hela cancer cells (Homo sapiens, UniProt P14902).
T2 construct: endogenous in cells; host or cells: Hela cancer cells stimulated with human IFN-γ
In words: IDO1 Cellular Assay (kynurenine production in IFN-γ stimulated Hela cancer cells). The following applies: human IFN-γ 50 ng/mL, 48 hours incubation, kynurenine at 490 nm. It counts as cell-based. In a few lines:
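HeLa cells stimulated with 50 ng/mL IFN-γ (final) and treated 48 h with compound (0–25 μM final, 0.25% DMSO). Supernatant kynurenine measured after TCA hydrolysis and p-dimethylaminobenzaldehyde reaction at 490 nm; inhibition vs DMSO control, IC50 by non-linear regression.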

T1 sequence (P48775 whole entry): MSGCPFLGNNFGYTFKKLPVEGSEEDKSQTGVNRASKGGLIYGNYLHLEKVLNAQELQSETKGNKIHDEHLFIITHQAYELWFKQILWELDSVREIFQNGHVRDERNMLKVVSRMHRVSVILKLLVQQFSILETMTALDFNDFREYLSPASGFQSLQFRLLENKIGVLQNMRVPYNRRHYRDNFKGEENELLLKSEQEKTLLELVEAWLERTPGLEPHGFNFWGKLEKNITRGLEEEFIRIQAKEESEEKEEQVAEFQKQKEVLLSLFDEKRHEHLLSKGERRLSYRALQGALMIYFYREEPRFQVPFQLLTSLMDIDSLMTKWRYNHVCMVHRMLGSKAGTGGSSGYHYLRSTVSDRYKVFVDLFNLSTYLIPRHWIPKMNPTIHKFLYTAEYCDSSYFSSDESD
T2 sequence (P14902 whole entry): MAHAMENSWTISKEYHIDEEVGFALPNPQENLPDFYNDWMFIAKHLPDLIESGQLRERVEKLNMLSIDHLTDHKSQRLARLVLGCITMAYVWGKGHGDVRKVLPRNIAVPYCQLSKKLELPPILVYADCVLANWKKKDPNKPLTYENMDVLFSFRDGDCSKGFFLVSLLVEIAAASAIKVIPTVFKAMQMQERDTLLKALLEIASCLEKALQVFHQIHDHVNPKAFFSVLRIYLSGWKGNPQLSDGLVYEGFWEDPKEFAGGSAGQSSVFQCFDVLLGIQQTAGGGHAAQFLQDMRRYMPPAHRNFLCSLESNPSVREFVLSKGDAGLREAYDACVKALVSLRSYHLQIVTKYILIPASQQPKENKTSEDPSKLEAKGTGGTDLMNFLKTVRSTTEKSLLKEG

What is called IC50 is the concentration at which inhibition is half-maximal. Read a low IC50 as inhibition by little substance. Take `O=C(Nc1ccc(F)cc1)N[C@H]1[C@@H]2C[C@@](O)(c3cc(Cl)cc4[nH]ncc34)C[C@@H]21` [Example 147, 1-((1R,3r,5S,6r)-3-(6-chloro-1H-indazol-4-yl)-3-hydroxybicyclo[3.1.0]hexan-6-yl)-3-(4-fluorophenyl)urea]: the results for the IC50 in experiment [1] and in experiment [2] were at most 500 nM and 1000 to 5000 nM, respectively.
For `O=C(N[C@H]1[C@@H]2C[C@@](O)(c3cc(Cl)cc4[nH]ncc34)C[C@@H]21)c1cccnc1` [Example 148, N-((1R,3r,5S,6r)-3-(6-chloro-1H-indazol-4-yl)-3-hydroxybicyclo[3.1.0]hexan-6-yl)nicotinamide], the IC50 in experiment [1] and in experiment [2] was at most 500 nM in each case.
Turning to `O=C(Cc1ccc(Cl)cc1)N[C@H]1[C@@H]2C[C@@](O)(c3cc(Cl)cc4[nH]ncc34)C[C@@H]21` [Example 149, N-((1R,3r,5S,6r)-3-(6-chloro-1H-indazol-4-yl)-3-hydroxybicyclo[3.1.0]hexan-6-yl)-2-(4-chlorophenyl)acetamide], the IC50 in experiment [1] and in experiment [2] was at most 500 nM each time.
For `O=C(N[C@H]1[C@@H]2C[C@@](O)(c3cc(Cl)cc4[nH]ncc34)C[C@@H]21)c1ccc(F)c(Cl)c1` [Example 150, 3-chloro-N-((1R,3r,5S,6r)-3-(6-chloro-1H-indazol-4-yl)-3-hydroxybicyclo[3.1.0]hexan-6-yl)-4-fluorobenzamide], the IC50 in experiment [1] and in experiment [2] was at most 500 nM each time.
For the compound `CC(=O)Nc1cccc(C(=O)N[C@H]2[C@@H]3C[C@@](O)(c4cc(Cl)cc5[nH]ncc45)C[C@@H]32)c1` [Example 151, 3-acetamido-N-((1R,3r,5S,6r)-3-(6-chloro-1H-indazol-4-yl)-3-hydroxybicyclo[3.1.0]hexan-6-yl)benzamide], the IC50 in experiment [1] was at most 500 nM; in experiment [2], 1000 to 5000 nM.
As for `O=C(N[C@H]1[C@@H]2C[C@@](O)(c3cc(Cl)cc4[nH]ncc34)C[C@@H]21)c1cc(F)cc(Cl)c1` [Example 152, 3-chloro-N-((1R,3r,5S,6r)-3-(6-chloro-1H-indazol-4-yl)-3-hydroxybicyclo[3.1.0]hexan-6-yl)-5-fluorobenzamide], the results for the IC50 in experiment [1] and in experiment [2] were at most 500 nM and 500 to 1000 nM, respectively.
As for `CS(=O)(=O)c1cccc(C(=O)N[C@H]2[C@@H]3C[C@@](O)(c4cc(Cl)cc5[nH]ncc45)C[C@@H]32)c1` [Example 153, N-((1R,3r,5S,6r)-3-(6-chloro-1H-indazol-4-yl)-3-hydroxybicyclo[3.1.0]hexan-6-yl)-3-(methylsulfonyl)benzamide], the IC50 is at most 500 nM in experiment [1] and 1000 to 5000 nM in experiment [2].
On to `Cc1cc(C(=O)N[C@H]2[C@@H]3C[C@@](O)(c4cc(Cl)cc5[nH]ncc45)C[C@@H]32)no1` [Example 154, N-((1R,3r,5S,6r)-3-(6-chloro-1H-indazol-4-yl)-3-hydroxybicyclo[3.1.0]hexan-6-yl)-5-methylisoxazole-3-carboxamide], for which the IC50 in experiment [1] was at most 500 nM; in experiment [2] it was 500 to 1000 nM.
The matching figures for `Cn1cc(C(=O)N[C@H]2[C@@H]3C[C@@](O)(c4cc(Cl)cc5[nH]ncc45)C[C@@H]32)cn1` [Example 155, N-((1R,3r,5S,6r)-3-(6-chloro-1H-indazol-4-yl)-3-hydroxybicyclo[3.1.0]hexan-6-yl)-1-methyl-1H-pyrazole-4-carboxamide]: at most 500 nM and 1000 to 5000 nM.
The matching figures for `O=C(N[C@H]1[C@@H]2C[C@@](O)(c3cc(Cl)cc4[nH]ncc34)C[C@@H]21)c1ccnc(C(F)(F)F)c1` [Example 156, N-((1R,3r,5S,6r)-3-(6-chloro-1H-indazol-4-yl)-3-hydroxybicyclo[3.1.0]hexan-6-yl)-2-(trifluoromethyl)isonicotinamide]: at most 500 nM and at most 500 nM.
